Active and inactive are the calls of the source. No rule for the calls is given here.
Tested on: CCRIS mutagenicity, Ames/micronucleus/aberration tests
Assay: CCRIS mutagenicity studies
[1] = Test System: AMES SALMONELLA TYPHIMURIUM, Strain/Indicator: TA97, Metabolic Activation: RAT, LIVER, S-9, AROCLOR 1254 (30%), Method: PREINCUBATION
[2] = Test System: AMES SALMONELLA TYPHIMURIUM, Strain/Indicator: TA98, Metabolic Activation: NONE, Method: PREINCUBATION
[3] = Test System: AMES SALMONELLA TYPHIMURIUM, Strain/Indicator: TA98, Metabolic Activation: RAT, LIVER, S-9, AROCLOR 1254 (30%), Method: PREINCUBATION
[4] = Test System: AMES SALMONELLA TYPHIMURIUM, Strain/Indicator: TA100, Metabolic Activation: NONE, Method: PREINCUBATION
[5] = Test System: AMES SALMONELLA TYPHIMURIUM, Strain/Indicator: TA100, Metabolic Activation: RAT, LIVER, S-9, AROCLOR 1254 (30%), Method: PREINCUBATION
[6] = Test System: AMES SALMONELLA TYPHIMURIUM, Strain/Indicator: TA1535, Metabolic Activation: NONE, Method: PREINCUBATION
[7] = Test System: AMES SALMONELLA TYPHIMURIUM, Strain/Indicator: TA98, Metabolic Activation: HAMSTER, LIVER, S-9, AROCLOR 1254 (30%), Method: PREINCUBATION
[8] = Test System: AMES SALMONELLA TYPHIMURIUM, Strain/Indicator: TA100, Metabolic Activation: HAMSTER, LIVER, S-9, AROCLOR 1254 (30%), Method: PREINCUBATION
[9] = Test System: AMES SALMONELLA TYPHIMURIUM, Strain/Indicator: TA98, Metabolic Activation: NONE, Method: STANDARD PLATE
[10] = Test System: AMES SALMONELLA TYPHIMURIUM, Strain/Indicator: TA100, Metabolic Activation: NONE, Method: STANDARD PLATE

## CC(C)(O)C#N
Test System: AMES SALMONELLA TYPHIMURIUM, Strain/Indicator: TA97, Metabolic Activation: HAMSTER, LIVER, S-9, AROCLOR 1254 (10 OR 30%), Method: PREINCUBATION
  mutagenic call: inactive; negative
Test System: AMES SALMONELLA TYPHIMURIUM, Strain/Indicator: TA97, Metabolic Activation: NONE, Method: PREINCUBATION
  mutagenic call: inactive; negative
Test System: AMES SALMONELLA TYPHIMURIUM, Strain/Indicator: TA97, Metabolic Activation: RAT, LIVER, S-9, AROCLOR 1254 (10%), Method: PREINCUBATION
  mutagenic call: inactive; negative
[1]
  mutagenic call: inactive; negative
Test System: AMES SALMONELLA TYPHIMURIUM, Strain/Indicator: TA98, Metabolic Activation: HAMSTER, LIVER, S-9, AROCLOR 1254 (10 OR 30%), Method: PREINCUBATION
  mutagenic call: inactive; negative
[2]
  mutagenic call: inactive; negative
Test System: AMES SALMONELLA TYPHIMURIUM, Strain/Indicator: TA98, Metabolic Activation: RAT, LIVER, S-9, AROCLOR 1254 (10%), Method: PREINCUBATION
  mutagenic call: inactive; negative
[3]
  mutagenic call: inactive; negative
Test System: AMES SALMONELLA TYPHIMURIUM, Strain/Indicator: TA100, Metabolic Activation: HAMSTER, LIVER, S-9, AROCLOR 1254 (10 OR 30%), Method: PREINCUBATION
  mutagenic call: inactive; negative
[4]
  mutagenic call: inactive; negative
Test System: AMES SALMONELLA TYPHIMURIUM, Strain/Indicator: TA100, Metabolic Activation: RAT, LIVER, S-9, AROCLOR 1254 (10%), Method: PREINCUBATION
  mutagenic call: inactive; negative
[5]
  mutagenic call: inactive; negative
Test System: AMES SALMONELLA TYPHIMURIUM, Strain/Indicator: TA1535, Metabolic Activation: HAMSTER, LIVER, S-9, AROCLOR 1254 (10 OR 30%), Method: PREINCUBATION
  mutagenic call: inactive; negative
[6]
  mutagenic call: inactive; negative
Test System: AMES SALMONELLA TYPHIMURIUM, Strain/Indicator: TA1535, Metabolic Activation: RAT, LIVER, S-9, AROCLOR 1254 (10%), Method: PREINCUBATION
  mutagenic call: inactive; negative
Test System: AMES SALMONELLA TYPHIMURIUM, Strain/Indicator: TA1535, Metabolic Activation: RAT, LIVER, S-9, AROCLOR 1254 (30%), Method: PREINCUBATION
  mutagenic call: inactive; negative

## Cc1ccccc1N=Nc1c(O)ccc2ccccc12
[7]
  mutagenic call: inactive; negative
[2]
  mutagenic call: inactive; negative
[3]
  mutagenic call: inactive; negative
[8]
  mutagenic call: active; positive
[4]
  mutagenic call: inactive; negative
[5]
  mutagenic call: inactive; negative

## COC(=O)C1=CCCN(C)C1
[9]
  mutagenic call: inactive; negative
Test System: AMES SALMONELLA TYPHIMURIUM, Strain/Indicator: TA98, Metabolic Activation: RAT, LIVER, S-9, Method: STANDARD PLATE
  mutagenic call: inactive; negative
[10]
  mutagenic call: active; positive
Test System: AMES SALMONELLA TYPHIMURIUM, Strain/Indicator: TA100, Metabolic Activation: RAT, LIVER, S-9, Method: STANDARD PLATE
  mutagenic call: active; positive

## N#Cc1ccc(CCl)cc1
[10]
  mutagenic call: inactive; negative

## CC(=O)Nc1ccc(Cc2ccc(NC(C)=O)cc2)cc1
[9]
  mutagenic call: inactive; negative
Test System: AMES SALMONELLA TYPHIMURIUM, Strain/Indicator: TA98, Metabolic Activation: RAT, LIVER, S-9, PCB, Method: STANDARD PLATE
  mutagenic call: inactive; negative
[10]
  mutagenic call: inactive; negative
Test System: AMES SALMONELLA TYPHIMURIUM, Strain/Indicator: TA100, Metabolic Activation: RAT, LIVER, S-9, PCB, Method: STANDARD PLATE
  mutagenic call: inactive; negative

## COC(=O)c1oc([N+](=O)[O-])c(Cl)c1Cl
[9]
  mutagenic call: active; positive
Test System: AMES SALMONELLA TYPHIMURIUM, Strain/Indicator: TA100(NR), Metabolic Activation: NONE, Method: STANDARD PLATE
  mutagenic call: active; positive
Test System: AMES SALMONELLA TYPHIMURIUM, Strain/Indicator: TA100, Metabolic Activation: NONE, Method: STANDARD PLATE (ANAEROBIC INCUBATION)
  mutagenic call: active; positive

## [O-][Br+2]([O-])O
End Point: IN VITRO CHROMOSOMAL ABERRATIONS, Test System: CHL/IU CELLS, Metabolic Activation: NONE
  mutagenic call: active; positive (structural changes)
End Point: IN VITRO MICRONUCLEUS, Test System: CHL/IU CELLS, Metabolic Activation: NONE
  mutagenic call: active; positive
End Point: IN VIVO MICRONUCLEUS, Test System: BONE MARROW POLYCHROMATIC ERYTHROCYTES, Species: MOUSE, Strain/Sex: DDY/MALE, Route: ORAL
  mutagenic call: active; positive
End Point: In vitro chromosomal aberrations, Test System: Chinese hamster lung (CHL) cells, Metabolic Activation: None
  mutagenic call: active; positive (structural changes)
End Point: In vitro micronucleus, Test System: Human TK6 lymphoblastoid cells, Metabolic Activation: None
  mutagenic call: active; positive
End Point: In vivo micronucleus, Test System: Peripheral blood normochromatic erythrocytes, Species: Mouse, Strain/Sex: Tg.AC hemizygous/Female, Route: Dermal
  mutagenic call: active; positive
End Point: In vivo micronucleus, Test System: Peripheral blood normochromatic erythrocytes, Species: Mouse, Strain/Sex: Tg.AC hemizygous/Female, Route: Oral
  mutagenic call: active; positive
End Point: In vivo micronucleus, Test System: Peripheral blood normochromatic erythrocytes, Species: Mouse, Strain/Sex: Tg.AC hemizygous/Male, Route: Dermal
  mutagenic call: active; positive
End Point: In vivo micronucleus, Test System: Peripheral blood normochromatic erythrocytes, Species: Mouse, Strain/Sex: Tg.AC hemizygous/Male, Route: Oral
  mutagenic call: active; positive
End Point: In vivo micronucleus, Test System: Peripheral blood normochromatic erythrocytes, Species: Mouse, Strain/Sex: p53 Haploinsufficient/Female, Route: Oral
  mutagenic call: active; positive
End Point: In vivo micronucleus, Test System: Peripheral blood normochromatic erythrocytes, Species: Mouse, Strain/Sex: p53 Haploinsufficient/Male, Route: Oral
  mutagenic call: active; positive
End Point: In vivo mutagenicity, Test System: Kidney, Species: Rat, Strain/Sex: Big Blue/male, Route: Oral
  mutagenic call: active; positive for mutants and total mutation frequencies and frequency of gc to ta tr
Test System: AMES SALMONELLA TYPHIMURIUM, Strain/Indicator: TA97, Metabolic Activation: HAMSTER, LIVER, S-9, AROCLOR 1254 (10%), Method: PREINCUBATION
  mutagenic call: inactive; negative
Test System: AMES SALMONELLA TYPHIMURIUM, Strain/Indicator: TA97, Metabolic Activation: HAMSTER, LIVER, S-9, AROCLOR 1254 (30%), Method: PREINCUBATION
  mutagenic call: inactive; negative
[1]
  mutagenic call: inactive; negative
Test System: AMES SALMONELLA TYPHIMURIUM, Strain/Indicator: TA97, Metabolic Activation: RAT, LIVER, S-9, AROCLOR 1254, Method: PREINCUBATION
  mutagenic call: inactive; negative
[7]
  mutagenic call: inactive; negative
[2]
  mutagenic call: inactive; negative
[3]
  mutagenic call: inactive; negative
[8]
  mutagenic call: inactive; negative
[4]
  mutagenic call: inactive; negative
[5]
  mutagenic call: inactive; negative
Test System: AMES SALMONELLA TYPHIMURIUM, Strain/Indicator: TA102, Metabolic Activation: NONE, Method: PREINCUBATION
  mutagenic call: inactive; negative
Test System: AMES SALMONELLA TYPHIMURIUM, Strain/Indicator: TA102, Metabolic Activation: RAT, LIVER, S-9, AROCLOR 1254, Method: PREINCUBATION
  mutagenic call: inactive; negative
Test System: AMES SALMONELLA TYPHIMURIUM, Strain/Indicator: TA1535, Metabolic Activation: HAMSTER, LIVER, S-9, AROCLOR 1254 (10%), Method: PREINCUBATION
  mutagenic call: active; positive
[6]
  mutagenic call: inactive; negative
Test System: AMES SALMONELLA TYPHIMURIUM, Strain/Indicator: TA1537, Metabolic Activation: HAMSTER, LIVER, S-9, AROCLOR 1254 (10 OR 30%), Method: PREINCUBATION
  mutagenic call: inactive; negative
Test System: AMES SALMONELLA TYPHIMURIUM, Strain/Indicator: TA1537, Metabolic Activation: NONE, Method: PREINCUBATION
  mutagenic call: inactive; negative
Test System: AMES SALMONELLA TYPHIMURIUM, Strain/Indicator: TA1537, Metabolic Activation: RAT, LIVER, S-9, AROCLOR 1254 (10 OR 30%), Method: PREINCUBATION
  mutagenic call: inactive; negative
Test System: CHINESE HAMSTER V-79 CELLS, Strain/Indicator: V-79-UL (HPRT)/6-THIOGUANINE, Metabolic Activation: NONE, Method: SUSPENSION/PLATE
  mutagenic call: active; positive
Test System: Human lymphoblastoid cells, Strain/Indicator: TK6 (HPRT)/6-thioguanine, Metabolic Activation: None, Method: Suspension/Well
  mutagenic call: active; positive
